The record followed here is US20190225650A1, “PEPTIDOMIMETIC MACROCYCLES AND USE THEREOF IN REGULATING HIF1ALPHA” (AILERON THERAPEUTICS, INC., priority 2013, published 2019).

This assay relates to HRE-bla ME-180 cells. The assay is described as follows: Reporter gene assay (HRE-bla ME-180 HIF reporter, GeneBLAzer). The format is cell-based, human. As to conditions: for EC50: 24 hour normoxia. The protocol:
The following reagents were used:
• DMEM+GutaMAX: (#10569044, Invitrogen) • Black clear bottom plates: (#3603, Costar) • HRE-bla-ME-180 cell line: (#K1644, Invitrogen) • Gene-Blazer reagent & protocol: (#K1096, Invitrogen) • Plate reader: Biotek Synergy 2 • Chetomin: (C9623, Sigma)
4 hours prior to experiment: HRE-bla ME-180 cells were seeded at a density of 20,000 cells/well in a volume of 180 μl in black clear bottom 96-well plates. 180 μl of assay medium was added to the cell-free control wells. Incubation was conducted at 37° C., 5% CO2 for 4 hours.
Diluted chetomin was used as a positive control. Chetomin was diluted in 100% DMSO to a 10 mM stock concentration. A 1 mM stock of chetomin was prepared in 100% DMSO. Then the 1 mM chetomin stock was serially diluted in 1:4 in 100% DMSO. Finally, 50, 12.5, 3.125, 0.78, 0.2, 0.05 μM stock of chetomin in 5% DMSO/water were prepared by adding 114 μL water+6 μL chetomin in DMSO.
Test peptides were diluted before use. The test peptides were diluted in 100% DMSO to a 10 mM stock concentration. Then each 10 mM peptide stock was diluted in 1:3 in 100% DMSO. Finally, 300, 100, 33.3, 11.1, 3.7, 1.2 μM stock of each peptide in 5% DMSO/water were prepared by adding 129.2 μL water+4 μL peptide in DMSO.
20 μl of peptide, chetomin dilution, or DMSO/water control were added to the appropriate wells of a plate to achieve 200 μL final volumes in 0.3% DMSO/media. The plate was first incubated for 18-20 hours in normoxia incubator (37° C. in humidified 5% CO2, 20% O2 atmosphere). Then the plate was transferred to hypoxia incubator for 24 hours (37° C. in humidified 5% CO2, 1% O2 atmosphere)
6× LiveBLAzer™-FRET B/G (CCF4-AM) Substrate Mixture was prepared according to CellSensor™ HRE-bla ME-180 Cell-based Assay Protocol (Invitrogen) and added into each well. Solution A (CCF4-AM) was reconstituted in DMSO to a working concentration of 1 mM, divided in aliquots, and stored at −20° C. The 6× LiveBLAzer-FRET B/G (CCF4-AM) Substrate mixture was prepared by mixing 6 μl of Solution A, 60 μl of Solution B, and 934 μl Solution C.
The plates were removed from incubator and equilibrated to RT for a few minutes. Then 20 μl of 6× Substrate mixture was added to each well. The plates were then incubated at room temperature for 3 hr in the dark and read at 409 Ex/460Em and 409Ex/530Em using the “GeneBlazer-Tungsten with export” program on the Synergy 2.
The average percentage of maximum inhibition was obtained by comparing the peptide treated cells (30 μM) to DMSO vehicle control treated cells. The results are shown in the columns “ME-180 HIF Reporter EC50 (μM) −24 hr normoxia” and “18 h Avg % max inhibition at top conc (HIF Rptr-24 hrsnormoxia) (μM)” of Table 6.

Molecules are shown by their SMILES. Bridge positions count the residues as written; N and C are the ends. Square brackets hold non-standard residues; d marks the D form. Peptide text beside a SMILES is read from it. S5 = C=CCCC[C@](C)(N)C(=O)O; Nle = CCCC[C@H](N)C(=O)O

For the compound `CCCC[C@H](NC(=O)[C@]1(C)CCCC=CCCC[C@](C)(NC(=O)[C@H](CO)NC(=O)[C@H](CC(C)C)NC(=O)[C@@H](NC(=O)[C@H](CCC(=O)O)NC(=O)[C@H](CCC(=O)O)NC(=O)[C@H](CC(=O)O)NC(=O)[C@@H](NC(=O)[C@H](Cc2ccccc2)NC(C)=O)[C@@H](C)CC)C(C)C)C(=O)N[C@@H](CC(C)C)C(=O)N[C@@H](C(C)C)C(=O)N[C@@H]([C@@H](C)CC)C(=O)N1)C(=O)N[C@@H](C)C(=O)N[C@@H](CC(C)C)C(=O)N[C@@H](CC(=O)O)C(=O)N[C@@H](CCCNC(=N)N)C(=O)N[C@H](C(N)=O)[C@@H](C)CC` [SP-50] (Ac-FIDEEVLS[S5]LVI[S5][Nle]ALDRI-NH2; staple 9-13), the “18 h Avg % max inhibition at top conc (HIF Rptr-24 hrs normoxia) (μM)” value (“18 h Avg % max inhibition at top conc” for short) was “++++ (≥50: ++++)” and the EC50 is not above 5 µM.

Take `CCCC[C@H](NC(=O)[C@H](CC(C)C)NC(=O)[C@@H](NC(=O)[C@H](CCC(=O)O)NC(=O)[C@H](CCC(=O)O)NC(=O)[C@H](CC(=O)O)NC(=O)[C@@H](NC(=O)[C@H](Cc1ccccc1)NC(C)=O)[C@@H](C)CC)C(C)C)C(=O)N[C@@]1(C)CCCC=CCCC[C@@](C)(C(=O)N[C@@H](CCCC)C(=O)N[C@@H](C)C(=O)N[C@@H](CC(C)C)C(=O)N[C@@H](CC(=O)O)C(=O)N[C@@H](CCCNC(=N)N)C(=O)N[C@H](C(N)=O)[C@@H](C)CC)NC(=O)[C@H]([C@@H](C)CC)NC(=O)[C@H](C(C)C)NC(=O)[C@H](CC(=O)O)NC1=O` [SP-35] (Ac-FIDEEVL[Nle][S5]DVI[S5][Nle]ALDRI-NH2; staple 9-13): the “18 h Avg % max inhibition at top conc” value is “+ (<10: +)” and the EC50 is more than 30 µM.

As to `CCCC[C@H](NC(=O)[C@H](CC(C)C)NC(=O)[C@@H](NC(=O)[C@H](CCC(=O)O)NC(=O)[C@H](CCC(=O)O)NC(=O)[C@H](CC(=O)O)NC(=O)[C@@H](NC(=O)[C@H](Cc1ccccc1)NC(C)=O)[C@@H](C)CC)C(C)C)C(=O)N[C@@]1(C)CCCC=CCCC[C@@](C)(C(=O)N[C@@H](CCCC)C(=O)N[C@@H](C)C(=O)N[C@@H](CC(C)C)C(=O)N[C@@H](CC(=O)O)C(=O)N[C@@H](CCCNC(=N)N)C(=O)N[C@H](C(N)=O)[C@@H](C)CC)NC(=O)[C@H]([C@@H](C)CC)NC(=O)[C@H](C)NC(=O)[C@H](CC(C)C)NC1=O` [SP-18] (Ac-FIDEEVL[Nle][S5]LAI[S5][Nle]ALDRI-NH2; staple 9-13), the “18 h Avg % max inhibition at top conc” value is “++++ (≥50: ++++)” and the EC50 was in the range of 5 to 15 µM.

With `CCCC[C@H](NC(=O)[C@H](CC(C)C)NC(=O)[C@@H](NC(=O)[C@H](CCC(=O)O)NC(=O)[C@H](CCC(=O)O)NC(=O)[C@H](CC(=O)O)NC(=O)[C@@H](NC(=O)[C@H](Cc1ccccc1)NC(C)=O)[C@@H](C)CC)C(C)C)C(=O)N[C@@]1(C)CCCC=CCCC[C@@](C)(C(=O)N[C@@H](CCCC)C(=O)N[C@@H](C)C(=O)N[C@@H](CC(C)C)C(=O)N[C@@H](CC(=O)O)C(=O)N[C@@H](CCCNC(=N)N)C(=O)N[C@@H](C)C(N)=O)NC(=O)[C@H]([C@@H](C)CC)NC(=O)[C@H](C(C)C)NC(=O)[C@H](CC(C)C)NC1=O` [SP-25] (Ac-FIDEEVL[Nle][S5]LVI[S5][Nle]ALDRA-NH2; staple 9-13), the “18 h Avg % max inhibition at top conc” value is recorded as “+++ (≤25 but <50: +++)” and the EC50 is 5 to 15 µM.

For `CCCC[C@H](NC(=O)[C@H](CC(C)C)NC(=O)[C@@H](NC(=O)[C@H](CO)NC(=O)[C@H](CCC(=O)O)NC(=O)[C@H](CC(=O)O)NC(=O)[C@@H](NC(=O)[C@H](Cc1ccccc1)NC(C)=O)[C@@H](C)CC)C(C)C)C(=O)N[C@@]1(C)CCCC=CCCC[C@@](C)(C(=O)N[C@@H](CCCC)C(=O)N[C@@H](C)C(=O)N[C@@H](CC(C)C)C(=O)N[C@@H](CC(=O)O)C(=O)N[C@@H](CCCNC(=N)N)C(=O)N[C@H](C(N)=O)[C@@H](C)CC)NC(=O)[C@H]([C@@H](C)CC)NC(=O)[C@H](C(C)C)NC(=O)[C@H](CC(C)C)NC1=O` [SP-47] (Ac-FIDESVL[Nle][S5]LVI[S5][Nle]ALDRI-NH2; staple 9-13), the “18 h Avg % max inhibition at top conc” value is recorded as “++++ (≥50: ++++)” and the EC50 was 5 to 15 µM.

As to `CC[C@H](C)[C@H](NC(=O)[C@H](Cc1ccccc1)NC(C)=O)C(=O)N[C@@H](CC(=O)O)C(=O)N[C@@H](CCC(=O)O)C(=O)N[C@@H](CCC(=O)O)C(=O)N[C@H](C(=O)N[C@@H](CC(C)C)C(=O)N[C@@H](C)C(=O)N[C@@]1(C)CCCC=CCCC[C@@](C)(C(=O)N[C@@H](C)C(=O)N[C@@H](C)C(=O)N[C@@H](CC(C)C)C(=O)N[C@@H](CC(=O)O)C(=O)N[C@@H](CCCNC(=N)N)C(N)=O)NC(=O)[C@H]([C@@H](C)CC)NC(=O)[C@H](C(C)C)NC(=O)[C@H](CC(C)C)NC1=O)C(C)C` [SP-28] (Ac-FIDEEVLA[S5]LVI[S5]AALDR-NH2; staple 9-13), the “18 h Avg % max inhibition at top conc” value is on record as “++++ (≥50: ++++)” and the EC50 lay within 15 to 30 µM.

Turning to `CC[C@H](C)[C@H](NC(=O)[C@H](CCCNC(=N)N)NC(=O)[C@H](CC(=O)O)NC(=O)[C@H](CC(C)C)NC(=O)[C@H](C)NC(=O)[C@H](C)NC(=O)[C@]1(C)CCCC=CCCC[C@](C)(NC(=O)[C@H](C)NC(=O)[C@H](CC(C)C)NC(=O)[C@@H](NC(=O)[C@H](CCC(N)=O)NC(=O)[C@H](CCC(=O)O)NC(=O)[C@H](CC(=O)O)NC(=O)[C@@H](NC(=O)[C@H](Cc2ccccc2)NC(C)=O)[C@@H](C)CC)C(C)C)C(=O)N[C@@H](CC(C)C)C(=O)N[C@@H](C(C)C)C(=O)N[C@@H]([C@@H](C)CC)C(=O)N1)C(N)=O` [SP-70] (Ac-FIDEQVLA[S5]LVI[S5]AALDRI-NH2; staple 9-13), the “18 h Avg % max inhibition at top conc” value is on record as “+++ (≤25 but <50: +++)” and the EC50 fell in the range of 5 to 15 µM.

On to `CCCC[C@H](NC(=O)[C@]1(C)CCCC=CCCC[C@](C)(NC(=O)[C@H](CC(=O)O)NC(=O)[C@H](CC(C)C)NC(=O)[C@@H](NC(=O)[C@H](CCC(=O)O)NC(=O)[C@H](CCC(=O)O)NC(=O)[C@H](CC(=O)O)NC(=O)[C@@H](NC(=O)[C@H](Cc2ccccc2)NC(C)=O)[C@@H](C)CC)C(C)C)C(=O)N[C@@H](CC(C)C)C(=O)N[C@@H](C(C)C)C(=O)N[C@@H]([C@@H](C)CC)C(=O)N1)C(=O)N[C@@H](C)C(=O)N[C@@H](CC(C)C)C(=O)N[C@@H](CC(=O)O)C(=O)N[C@@H](CCCNC(=N)N)C(=O)N[C@H](C(N)=O)[C@@H](C)CC` [SP-34] (Ac-FIDEEVLD[S5]LVI[S5][Nle]ALDRI-NH2; staple 9-13), for which the “18 h Avg % max inhibition at top conc” value was “++++ (≥50: ++++)” and the concentration giving a half-maximal response (EC50) fell in the range of 5 to 15 µM.

As to `CCCC[C@H](NC(=O)[C@H](CO)NC(=O)[C@@H](NC(=O)[C@H](CCC(=O)O)NC(=O)[C@H](CCC(=O)O)NC(=O)[C@H](CC(=O)O)NC(=O)[C@@H](NC(=O)[C@H](Cc1ccccc1)NC(C)=O)[C@@H](C)CC)C(C)C)C(=O)N[C@@]1(C)CCCC=CCCC[C@@](C)(C(=O)N[C@@H](CCCC)C(=O)N[C@@H](C)C(=O)N[C@@H](CC(C)C)C(=O)N[C@@H](CC(=O)O)C(=O)N[C@@H](CCCNC(=N)N)C(=O)N[C@H](C(N)=O)[C@@H](C)CC)NC(=O)[C@H]([C@@H](C)CC)NC(=O)[C@H](C(C)C)NC(=O)[C@H](CC(C)C)NC1=O` [SP-49] (Ac-FIDEEVS[Nle][S5]LVI[S5][Nle]ALDRI-NH2; staple 9-13), the “18 h Avg % max inhibition at top conc” value is listed as “++++ (≥50: ++++)” and the EC50 was 5 to 15 µM.

Regarding `CCCC[C@H](NC(=O)[C@H](CC(C)C)NC(=O)[C@@H](NC(=O)[C@H](CCC(=O)O)NC(=O)[C@H](CCC(=O)O)NC(=O)[C@H](CC(=O)O)NC(=O)[C@@H](NC(=O)[C@H](Cc1ccccc1)NC(C)=O)[C@@H](C)CC)C(C)C)C(=O)N[C@@]1(C)CCCC=CCCC[C@@](C)(C(=O)N[C@@H](C)C(=O)N[C@@H](C)C(=O)N[C@@H](CC(C)C)C(=O)N[C@@H](CC(=O)O)C(=O)N[C@@H](CCCNC(=N)N)C(=O)N[C@H](C(N)=O)[C@@H](C)CC)NC(=O)[C@H]([C@@H](C)CC)NC(=O)[C@H](C(C)C)NC(=O)[C@H](CC(C)C)NC1=O` [SP-20] (Ac-FIDEEVL[Nle][S5]LVI[S5]AALDRI-NH2; staple 9-13), the “18 h Avg % max inhibition at top conc” value was “++++ (≥50: ++++)” and the EC50 was in the range of 5 to 15 µM.

As usually defined, the EC50 is the concentration giving half of the maximal effect.
